Experimental data as given in patent publication US8153116B2, “Use of conditional plasmodium strains lacking an essential gene in malaria vaccination” (University of Connecticut, priority 2006, dated 2012).

Tested on: wild type, pfpmtΔ+PfPMT and pfpmtΔ parasites
Experiment: TUNEL assay of drug-treated parasites
Format: cell-based, Plasmodium falciparum
Settings: 100 nM, 24 h
Description: The terminal deoxynucleotidyl transferase (TdT) dUTP nick end labeling (TUNEL) kit (Roche) was used to detect apoptotic cells following the manufacturer's instructions, with some modifications. Briefly, asynchronous cultures were grown to 10% parasitemia and 1 ml of the culture aliquots were washed twice with PBS and the cell count adjusted to 1×10^6 cells/ml. Fixation was achieved by resuspending the cells in 2% paraformaldehyde solution in PBS and incubated at room temperature for 1 h. The fixed cells were washed twice with PBS, resuspended in 100 μl of 0.1% Triton X-100 in 0.1% sodium citrate solution, and incubated for 2 min on ice. Cells were then washed twice in PBS and kept on ice until labeling. A positive control sample was prepared by incubating fixed and permeabilized cells with 3000 U/ml of DNase I for 15 min at room temperature followed by two washes with PBS. To label the cells, 50 μl of the TUNEL reaction mixture was added to the cell pellet and mixed gently. A negative control sample was included by treating fixed, permeabilized cells with the labeling solution in, the absence of the terminal TdT enzyme. The reaction mixtures were incubated in the dark at 37° C. for 1 h and then washed twice in PBS and resuspended in 250 μl PBS. Cells were analyzed by fluorescence microscopy at 525 nm wavelength with the FITC filter. […]

Structure (SMILES): CCN(CC)CCCC(C)Nc1ccnc2cc(Cl)ccc12 (stereo not shown) [chloroquine]
- TUNEL staining of drug-treated parasites: positively stained with TUNEL
